Values joined by “and” are separate entries in the source; they are usually repeats but may differ in a detail not shown here. Identical values can stand only once. Like-named read-outs stand apart in the source and are kept apart here.

Series [1] deals with IL-2 secretion, human white blood cells. Kind of series: IL-2 secretion by PMA/ionomycin-stimulated human white blood cells (ELISA).
Description: (§1) Various concentrations of each test compound were added at the time of stimulation. […] After the plate was washed with 0.1% Tween 20/PBS, an HRP-luminescent substrate was added to each well and light intensity measured using a LJL Analyst plate luminometer.
(§2) The percent inhibition (% I) for each well was calculated using the following formula:
(§3) The average untreated well value (avg. untreated wells) is the arithmetic mean of 40 wells from the same assay plate treated with vehicle alone.
Series [2] concerns TNFα secretion, human white blood cells. Kind of series: TNFα secretion, lipopolysaccharide stimulation, human white blood cells (ELISA).
Description: as §1, §2, §3
For series [3] the test system is unchanged. The settings on record: cyclosporine 0 μM.
Description: Drugs were added to the indicated concentration. […] The plate was then washed again with 0.1% Tween 20/PBS. An HRP-luminescent substrate was added to each well, and the light intensity of each well was measured using a plate luminometer.
as §2, §3
The conditions of series [4]: cited from earlier work.
Setting [5] is: read-out: % Inhibition of TNFα secretion, cyclosporine A 0 μM, chlorpromazine […].
The mark [6] stands for this setting: read-out: % Inhibition of IL-2 secretion, cyclosporine A 0.00 μM, ethopropazine […].
The mark [7] stands for this setting: read-out: % Inhibition of TNFα secretion, cyclosporine A 0.00 μM, ethopropazine […].
The mark [8] stands for this setting: read-out: % Inhibition of IL-2 secretion.

Take `CN(C)CCCN1c2ccccc2Sc2ccc(Cl)cc21` [Chlorpromazine]: in series [1] (read-out: % Inhibition of IL-2 secretion, cyclosporine A 0 μM, chlorpromazine 0.6 μM), the inhibition at 0.6 µM was -13.3%. For the same molecule, the inhibition at 5 µM in series [1] (read-out: % Inhibition of IL-2 secretion, cyclosporine A 0 μM, chlorpromazine 5.0 μM) is -13.7%. The inhibition at 20 µM in series [1] (read-out: % Inhibition of IL-2 secretion, cyclosporine A 0 μM, chlorpromazine 20.0 μM) was determined as 24.7%. For the same molecule, the inhibition at 40 µM in series [1] (read-out: % Inhibition of IL-2 secretion, cyclosporine A 0 μM, chlorpromazine 40.0 μM) was 80.7%. The inhibition at 80 µM in series [1] (read-out: % Inhibition of IL-2 secretion, cyclosporine A 0 μM, chlorpromazine 80.0 μM) turned out to be 94.7%. Further, in series [2] (setting [5]), the inhibition at 17 µM came out at 46.2% and the inhibition at 35 µM is 45.5%.

Turning to `CCN(CC)C(C)CN1c2ccccc2Sc2ccccc21` (centres unmarked) [Ethopropazine], the inhibition at 17 µM was found to be 21% in series [1] (setting [6]) and 24.3% in series [2] (setting [7]). In addition, the inhibition at 35 µM is 52.3% in series [1] (setting [6]) and 69.6% in series [2] (setting [7]).

As for `CN(C)C(=O)C(CCN1CCC(O)(c2ccc(Cl)cc2)CC1)(c1ccccc1)c1ccccc1` [Loperamide], in series [1] (setting [8]), the inhibition at 17 µM came to 4.2%; the inhibition at 35 µM was 42.4%; the inhibition at […] was -14.9% and -15.5% and -10.5% and -15.4% (2×) and -13.5%. Further, the inhibition at 35 µM in series [2] (read-out: % Inhibition of TNFα secretion) was 87.3%.

Turning to `CCOC(=O)N1CCC(=C2c3ccc(Cl)cc3CCc3cccnc32)CC1` [Loratadine], the “Reduction of TNFα secretion” value in series [3] (loratadine 0.2 μM) was determined as 0; in series [3] (loratadine 13 μM), 30.1; in series [3] (loratadine 26 μM), 40.7.

With `CO[C@H]1C[C@@H]2CC[C@@H](C)[C@@](O)(O2)C(=O)C(=O)N2CCCC[C@H]2C(=O)O[C@H]([C@H](C)C[C@@H]2CC[C@@H](O)[C@H](OC)C2)CC(=O)[C@H](C)/C=C(\C)[C@@H](O)[C@@H](OC)C(=O)[C@H](C)C[C@H](C)/C=C/C=C/C=C/1C` [Rapamycin], the “absorption after oral administration” value in series [4] is “absorbed rapidly and completely”.

With `C=CC[C@@H]1/C=C(\C)C[C@H](C)C[C@H](OC)[C@H]2O[C@@](O)(C(=O)C(=O)N3CCCC[C@H]3C(=O)O[C@H](/C(C)=C/[C@@H]3CC[C@@H](O)[C@H](OC)C3)[C@H](C)[C@@H](O)CC1=O)[C@H](C)C[C@@H]2OC` [Tacrolimus], in series [1] (PBMC, read-out: % Inhibition IL-2 PBMC PI, tacrolimus 0.0004 μM, fluvoxamine μM: 0,0.16,0.31,0.62,1.2,2.5,5,10,20), the inhibition at 0.0004 µM came out at 0.73%. Also, the inhibition at 0.0008 µM in series [1] (PBMC, read-out: % Inhibition IL-2 PBMC PI, tacrolimus 0.0008 μM, fluvoxamine μM: 0,0.16,0.31,0.62,1.2,2.5,5,10,20) is -4.4%. The inhibition at 0.05 µM amounted to 87% in series [1] (PBMC, read-out: % Inhibition IL-2 PBMC PI, tacrolimus 0.05 μM, fluvoxamine μM: 0,0.16,0.31,0.62,1.2,2.5,5,10,20) and 87% in series [1] (read-out: maximal inhibition of IL-2 production, tacrolimus 0.05 μM alone).

Source of the values: US20040224876A1, “Combination therapy for the treatment of immunoinflammatory disorders” (priority 2003, published 2004).
